Structures can show the parent of a compound that is named as a salt.
Assays:
[1] = both R and S isomer forms; cited from earlier work
[2] = pH-solubility behaviour of carvedilol free base; format: physicochemical; conditions: pH values encountered in the distal small intestine and colon
[3] = Aqueous solubility at 25° C. of carvedilol free base and three salts (Table 13); format: physicochemical
Excerpt: Aliquots were taken out at various time-point, filtered through 0.45 μm Acrodisc GHP filter.

For COc1ccccc1OCCNCC(O)COc1cccc2[nH]c3ccccc3c12 (stereo not drawn) [Carvedilol Free Base], which alpha elimination phase [1] is on record?
The alpha elimination phase was “about 1.5 hours”.

What about the solubility [2] of the same molecule?
Its solubility is ≤ 0.1 mg per ml.

With COc1ccccc1OCCNCC(O)COc1cccc2[nH]c3ccccc3c12 (stereo not drawn) [HBr salt, Carvedilol HBr] as the molecule, how does the “aqueous solubility compared with free base” value [3] read?
The value was “much better aqueous solubility than the free base”.

Reference: patent US20050175695A1 (priority 2003, published 2005)
